Experimental data from paper PMC4926125, “Evaluation of the Toxicity and Toxicokinetics of Cereulide from an Emetic Bacillus cereus Strain of Milk Origin” (Toxins, 2016).
Read-outs that look alike come from different tables or passages of the source.

How the values were obtained:
[1] = system: aspartate aminotransferase (AST) in plasma; test: Liver damage in rabbits evaluated by plasma AST concentration (indirect EIA); assay type: in vivo, New Zealand White rabbits; conditions: mean ± SD, n = 8, control range 15.0 to 30.0 ng/mL
Description: Liver damage in rabbits triggered by cereulide was evaluated by the concentration of aspartate aminotransferase (AST) in plasma. […] Liver function recovered, with the concentration of AST returning to the normal level 32 h after administration. In addition, the concentrations of AST in female rabbits were higher than those in males (Figure 3c), especially at the time point of 0.5 h (P = 0.0345).
This animal study was approved by the Institutional Animal Care and Use Committee at the China Agricultural University (SYXK (2012-0037), 28 December 2012), and all the operations were conducted according to the biosafety procedures. Eight adult New Zealand White rabbits (four female and four male) with weights of 2.0 ± 0.3 kg were used in this study. A single intravenous dose of 5 μg cereulide dissolved in 0.9% saline-methanol (10:90, v/v; the amount of methanol injected to rabbit was about 1.8 g/kg body weight) was administrated. Two other rabbits (one female and one male) were treated by 0.9% saline-methanol (10:90, v/v) as control. […]
Plasma samples at time points of 0.5, 6, 12, 24 and 32 h were evaluated concentrations of AST by indirect EIA according to the instruction (Beyotime Biotechnology, Beijing, China). […] Subsequently, the substrate was added with the absorbance at 450 nm.

[2] = Toxicokinetics of cereulide in rabbits after a single intravenous injection (plasma, UPLC-MS/MS); assay type: in vivo, New Zealand White rabbits; conditions: for MRT / Tmax: rabbit; for MRT: read-out: MRTlast, mean retention time until the last time point; for Tmax: read-out: Tmax, time to peak concentration
Description: A total number of eight rabbits (half female and half male) were used to evaluate the toxicokinetics of cereulide after a single administration of 5 μg cereulide. All plasma samples at different time points were collected, and the concentrations of cereulide were quantified by UPLC-MS/MS assay. The dynamic curve of cereulide in the plasma of rabbits is shown in Figure 3a, and toxicokinetic parameters were calculated using a non-compartmental model as shown in Table 1. […] The concentration of cereulide dropped down until 1 h and rose thereafter. Following a short stationary phase from 4 h to 8 h, the concentration of cereulide decreased gradually. No cereulide could be detected 32 h later. Additionally, no cereulide was detected in the rabbits treated by 0.9% saline-methanol (10:90, v/v) based on our established UPLC-MS/MS method.
This animal study was approved by the Institutional Animal Care and Use Committee at the China Agricultural University (SYXK (2012-0037), 28 December 2012), and all the operations were conducted according to the biosafety procedures. Eight adult New Zealand White rabbits (four female and four male) with weights of 2.0 ± 0.3 kg were used in this study. A single intravenous dose of 5 μg cereulide dissolved in 0.9% saline-methanol (10:90, v/v; the amount of methanol injected to rabbit was about 1.8 g/kg body weight) was administrated. Two other rabbits (one female and one male) were treated by 0.9% saline-methanol (10:90, v/v) as control. Blood samples were collected after injection at different time points 0, 0.2, 0.5, 1, 2, 3, 4, 5, 6, 8, 10, 12, 16, 20, 24, 28, 32 h. All samples were centrifuged at 4 °C, 2000 g for 10 min. Plasma from each sample was collected and stored at −80 °C.
The plasma samples were thawed to room temperature before analysis. Then 200 μL of each sample was spiked with 10 ng/mL valinomycin (Sigma-Aldrich, St. Louis, MO, USA) as internal standards in a 1.5 mL tube (Axygen, Union City, CA, USA). The extraction steps were as below. First 1 mL acetonitrile (Fisher Scientific, Waltham, PA, USA) was added to each sample and vortexed for 3 min. After centrifugation at 13,000 g for 10 min, the supernatants were transferred into new tubes. The extraction steps were repeated once and the supernatants were combined. The supernatants were evaporated under a flow of nitrogen gas at 50 °C. The dry samples were reconstituted with 500 μL methanol and water with the ratio of 9:1 (v/v), vortexed for 3 min and filtered through 0.22 μm filter membrane (PALL, Port Washington, NY, USA) before UPLC-MS/MS analysis.
The presence of cereulide was confirmed in all extracts and quantified by UPLC-MS/MS as described before. UPLC-MS/MS (Waters, Milford, MA, USA) equipped with a RP C18 column (50 mm × 2.1 mm, 1.7 μm, Acquity UPLC, Milford, MA, USA) was used. A gradient program was applied with the mobile phase consisting of solvent A (0.1% formic acid (Dikma, Lake Forest, CA, USA) in water) and solvent B (0.1% formic acid in acetonitrile) as follows: 98%–10% A (0–1 min), 10%–0% A (1–3 min), 0%–98% A (3–5 min). The flow rate was set at 0.3 mL/min with the injection volume of 10 μL. A positive electrospray ionization (ESI^+) mode was chosen to analyze the transitions of m/z 1170.9 → 1125.9 for cereulide and m/z 1128.8 → 1084.3 for valinomycin, by multiple reaction monitoring (MRM) method. The cone voltages for cereulide and valinomycin were 10 V and 60 V, and collision energy were 20 eV and 37 eV, respectively. All data were acquired and processed by software Masslynx 4.1 (Waters, Milford, MA, USA, 2005). The toxicokinetic parameters of cereulide were analyzed by the commercial pharmacokinetic program Phoenix WinNonlin 5.2.1 (Certara, Princeton, NJ, USA).

[3] = still active after heat treatment in food processing and passing through the intestinal tract; cited from earlier work
From the text: B. cereus can be found in most common food matrices such as rice, pasta and dairy products, and it represents more than 68.0% of foodborne outbreaks in all food types. There is an increasing occurrence of B. cereus foodborne outbreaks. For example, B. cereus was responsible for 13.4% of bacterial foodborne outbreaks, ranking as the second among the most frequent bacterial causes of foodborne disease in Chinese inland provinces. In fact, the number of B. cereus contaminations is highly underestimated, because foodborne B. cereus disease is mild and self-limiting and is consequently ...

[4] = both sexes, New Zealand White, plasma, iv, 5 ug, single i.v. 5 μg cereulide/rabbit, plasma, UPLC-MS/MS, non-compartmental, n = 8, mean ± SD
[5] = both sexes, New Zealand White, plasma, iv, 5 ug, single i.v. 5 μg cereulide/rabbit, plasma, UPLC-MS/MS, non-compartmental, n = 8, median
[6] = single i.v. 5 μg cereulide/rabbit, plasma, UPLC-MS/MS (LOQ 1.5 ng/mL)
[7] = single i.v. 5 μg cereulide/rabbit, plasma, UPLC-MS/MS, non-compartmental, n = 8, median
[8] = single i.v. 5 μg cereulide/rabbit, plasma, UPLC-MS/MS, non-compartmental, n = 8, range

## CC(C)C[C@H]1OC(=O)[C@H](C(C)C)NC(=O)[C@H](C(C)C)OC(=O)[C@@H](C)NC(=O)[C@@H](CC(C)C)OC(=O)[C@H](C(C)C)NC(=O)[C@H](C(C)C)OC(=O)[C@@H](C)NC(=O)[C@@H](CC(C)C)OC(=O)[C@H](C(C)C)NC(=O)[C@H](C(C)C)OC(=O)[C@@H](C)NC1=O [cereulide]
[1]; 0.5 h after single i.v. 5 μg cereulide
  AST concentration in plasma: 99.1 ± 32.2 ng/mL
[1]; 12 h after single i.v. 5 μg cereulide
  AST concentration in plasma: 97.3 ± 55.3 ng/mL
[2]; both sexes, New Zealand White, iv, 5 ug, single i.v. 5 μg cereulide/rabbit, plasma, UPLC-MS/MS, non-compartmental, n = 8, mean ± SD, read-out: AUC, area under the curve for the plasma concentration until the last time point
  AUC(0-t): 321 ± 240 ng·h/mL
[2]; both sexes, New Zealand White, iv, 5 ug, single i.v. 5 μg cereulide/rabbit, plasma, UPLC-MS/MS, non-compartmental, n = 8, mean ± SD, read-out: AUC∞, area under the curve until infinity
  AUC(0-inf): 390 ± 258 ng·h/mL
[2]; both sexes, New Zealand White, iv, 5 ug, single i.v. 5 μg cereulide/rabbit, plasma, UPLC-MS/MS, non-compartmental, n = 8, mean ± SD, read-out: Cl, clearance (converted)
  clearance: 0.318 mL/min
[2]; both sexes, New Zealand White, iv, 5 ug, single i.v. 5 μg cereulide/rabbit, plasma, UPLC-MS/MS, non-compartmental, n = 8, mean ± SD, read-out: Cmax, maximum concentration after intravenous administration
  Cmax: 40.8 ± 21.6 ng/mL
[2]; both sexes, New Zealand White, iv, 5 ug, single i.v. 5 μg cereulide/rabbit, plasma, UPLC-MS/MS, non-compartmental, n = 8, mean ± SD, read-out: HL_Lambda_z, elimination half-life (converted)
  half-life: 10.8 ± 9.1 h
[2]; both sexes, New Zealand White, iv, 5 ug, single i.v. 5 μg cereulide/rabbit, plasma, UPLC-MS/MS, non-compartmental, n = 8, mean ± SD, read-out: Vd, volume of distribution
  Vd: 0.32 ± 0.4 L
[2]; [4]
  MRT: 9.6 ± 2.9 h
  Tmax: 2.6 ± 3.4 h
[2]; [5]
  MRT: 10.6 h
  Tmax: 0.2 h
[2]; single i.v. 5 μg cereulide/rabbit (ear vein), plasma 0-32 h, UPLC-MS/MS, non-compartmental model (WinNonlin), n = 8, median
  AUC, area under the curve for the plasma concentration until the last time point: 309.3 ng·h/mL
[2]; [6]
  time after which no cereulide could be detected in plasma: 32 h
  time at which cereulide was detected in plasma after injection: ≤ 0.2 h
[2]; single i.v. 5 μg cereulide/rabbit, plasma, UPLC-MS/MS, non-compartmental, n = 8, mean ± SD
  Lambda_z, elimination rate constant: 0.1 ± 0.1 h⁻¹
[2]; [7]
  AUC∞, area under the curve until infinity: 330.5 ng·h/mL
  Cl, clearance: 15.5 mL/h
  Cmax, maximum concentration after intravenous administration: 33.8 ng/mL
  HL_Lambda_z, elimination half-life: 6.9 h
  Lambda_z, elimination rate constant: 0.1 h⁻¹
  Vd, volume of distribution: 208.1 mL
[2]; [8]
  AUC, area under the curve for the plasma concentration until the last time point: 81.2 to 851.1 ng·h/mL
  AUC∞, area under the curve until infinity: 126.0 to 853.9 ng·h/mL
  Cl, clearance: 5.9 to 39.7 mL/h
  Cmax, maximum concentration after intravenous administration: 13.3 to 78.1 ng/mL
  HL_Lambda_z, elimination half-life: 1.9 to 24.5 h
  Lambda_z, elimination rate constant: 0.03 to 0.4 h⁻¹
  MRTlast, mean retention time until the last time point: 4.5 to 13.4 h
  Tmax, time to peak concentration: 0.2 to 8.0 h
  Vd, volume of distribution: 16.3 to 1254.5 mL
[3]
  stability to heat and proteolysis: heat-stable, proteolytically resistant
